{"source": "patent US8299081B2", "about": "“Methods for treating drug resistant cancer” (Novartis AG, priority 2005, dated 2012)", "key": {"[1]": {"tested_on": "L1210 murine leukemia cells (parental line)", "conditions": "cited from earlier work"}, "[2]": {"tested_on": "melphalan-resistant L1210 murine leukemia cells", "conditions": "cited from earlier work"}, "[3]": {"parameters": "species or system human", "conditions": "in vivo", "method": "(§1) Phase I dose escalating multi-center open label studies were conducted to evaluate the safety, pharmacokinetics, and pharmacodynamics of Compound 1 in subjects with advanced solid malignancies. Further primary objectives of the studies included: 1) determining the Maximum Tolerated Dose (MTD); 2) identifying Dose Limiting Toxicity (DLT); and 3) assessing safety provil in subject with advanced solid tumors. Secondary objectives of the study included: 1) evaluating pharmacokinetics; 2) evaluating pharmacodynamics in plasma, peripheral blood lymphocytes, urine, and tumor cells; 3) recommending dose and schedule for future investigations; and 4) determining evidence of anti-tumor activity (RECIST). Details regarding this study are set forth below\n[…]. Plasma exposure in the 100 mg dose group approaches the range where preclinical efficacy has been noted."}, "MV4;11 tumors": {"tested_on": "MV4;11 tumors", "assay": "Subcutaneous MV4;11 tumor xenograft model", "type": "in vivo, SCID-NOD mice"}, "RS4;11 tumors": {"tested_on": "RS4;11 tumors", "assay": "Subcutaneous RS4;11 tumor xenograft model", "type": "in vivo, SCID-NOD mice"}, "MV4;11 cells": {"tested_on": "MV4;11 cells", "assay": "Intravenous bone marrow (BM) engraftment model MV4;11", "type": "in vivo, SCID-NOD mice", "method": "For processing of bone marrow (BM) cells from the mouse MV4;11 engraftment model, femurs were purged with cold saline and red blood cells lysed with FACS lysis buffer (Becton Dickinson). Percent engraftment of human leukemic cells in mouse BM was determined by staining with anti-human HLA-A,B,C-FITC (vs. isotype-matched antibody-FITC control) (BD Pharmingen).\n[…]. […] Mice were monitored daily and were euthanized when moribund or early signs of loss of hind limb motility. Increased life span (ILS) of treated mice was calculated as a percent increase in median survival time (MST) vs. vehicle treated control mice.\n. In this model, MV4;11 cells disseminate to the bone marrow (BM), pathologically mimicking a disease pattern similar to human leukemia. […]. Histological analyses and flow cytometry were used to quantify the % engraftment of MV4;11 cells in BM (FIG. 21). In flow cytometric analyses, human MV4;11 cells were identified in mouse BM with an anti-human HLA-A,B,C antibody which binds to an epitope on human MHCl. In vehicle-treated mice, approximately 2-19% of total isolated BM cells consisted of engrafted MV4;11 cells (day 51, FIG. 21-a). This was also corroborated by immunohistochemistry with an antibody to human mitochondria which stains MV4;11 cells identifying the human cells in the mouse BM matrix (FIG. 21-b,c). […]."}, "[4]": {"conditions": "human, in vivo", "method": "as §1, with “below […]” for “below”"}, "[5]": {"tested_on": "advanced solid malignancies", "assay": "Phase I dose escalating study: anti-tumor activity", "type": "in vivo, human", "method": "as §1, with “below […]” for “below”"}, "pSTAT5 in MV4;11 tumors": {"tested_on": "pSTAT5 in MV4;11 tumors", "assay": "Target modulation in vivo: pSTAT5 in MV4;11 tumors", "conditions": "Mus musculus"}, "[6]": {"tested_on": "KM12L4A human colon tumor xenografts", "assay": "KM12L4A human colon tumor xenografts", "type": "in vivo, nude mice", "conditions": "large established tumors 500 or 1000 mm^3, dosed daily", "text": "These compounds have also shown oral activity in a variety of angiogenesis tumor and metastases animal models."}, "P-glycoprotein": {"molecular_target": "P-glycoprotein (Homo sapiens, UniProt P08183)", "sequence (P08183 whole entry)": "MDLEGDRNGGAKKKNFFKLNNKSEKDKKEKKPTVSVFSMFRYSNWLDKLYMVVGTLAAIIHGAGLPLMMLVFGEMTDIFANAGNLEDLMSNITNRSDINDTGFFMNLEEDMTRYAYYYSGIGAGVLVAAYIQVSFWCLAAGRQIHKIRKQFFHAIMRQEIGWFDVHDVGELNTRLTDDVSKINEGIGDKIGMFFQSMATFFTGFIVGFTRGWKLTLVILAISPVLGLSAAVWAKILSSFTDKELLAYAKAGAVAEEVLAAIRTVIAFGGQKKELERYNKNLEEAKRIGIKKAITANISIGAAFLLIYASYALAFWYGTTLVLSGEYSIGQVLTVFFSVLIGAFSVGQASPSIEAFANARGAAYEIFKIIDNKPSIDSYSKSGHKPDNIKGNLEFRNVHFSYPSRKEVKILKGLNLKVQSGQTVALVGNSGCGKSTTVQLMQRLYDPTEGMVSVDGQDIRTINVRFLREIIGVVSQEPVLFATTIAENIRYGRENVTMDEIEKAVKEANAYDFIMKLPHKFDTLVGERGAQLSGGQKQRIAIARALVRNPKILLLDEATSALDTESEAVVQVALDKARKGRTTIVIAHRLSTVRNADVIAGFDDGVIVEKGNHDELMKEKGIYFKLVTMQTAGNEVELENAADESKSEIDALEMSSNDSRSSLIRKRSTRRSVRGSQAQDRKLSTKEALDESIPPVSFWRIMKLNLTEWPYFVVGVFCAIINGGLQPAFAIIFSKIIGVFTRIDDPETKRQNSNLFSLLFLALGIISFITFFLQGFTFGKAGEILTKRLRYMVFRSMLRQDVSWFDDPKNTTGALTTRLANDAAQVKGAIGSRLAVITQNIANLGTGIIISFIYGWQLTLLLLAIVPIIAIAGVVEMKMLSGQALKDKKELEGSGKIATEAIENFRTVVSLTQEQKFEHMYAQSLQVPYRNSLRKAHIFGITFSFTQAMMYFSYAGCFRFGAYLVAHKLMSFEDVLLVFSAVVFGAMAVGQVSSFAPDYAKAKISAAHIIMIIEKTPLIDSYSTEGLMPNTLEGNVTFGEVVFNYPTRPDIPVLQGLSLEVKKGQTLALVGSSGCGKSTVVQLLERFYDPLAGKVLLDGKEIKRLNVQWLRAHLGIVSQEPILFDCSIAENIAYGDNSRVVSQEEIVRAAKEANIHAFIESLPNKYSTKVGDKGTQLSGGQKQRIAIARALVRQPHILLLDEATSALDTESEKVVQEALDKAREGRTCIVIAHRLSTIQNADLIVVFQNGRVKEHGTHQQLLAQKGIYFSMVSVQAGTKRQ", "assay": "P-GP substrate status", "type": "in vitro ADME"}, "[7]": {"conditions": "MV4;11, 30 mg/kg/d, dose-response study"}, "[8]": {"conditions": "large MV4;11 tumors 300, 500 or 1000 mm^3, 30 mg/kg/d, n=27"}}, "note": "Where two headings read alike, the source gives them in different places."}
{"smiles": "C=C(Br)C(=O)Nc1cc(C(=O)Nc2cc(C(=O)Nc3cc(C(=O)Nc4cc(C(=O)NCCNC(=N)N)n(C)c4)n(C)c3)n(C)c2)n(C)c1", "note": "[Brostallicin]", "values": [{"measurement": "IC50", "setting": "[1]", "result": 1.45, "unit": "ng/mL"}, {"measurement": "higher activity in melphalan-resistant L1210 than in the parental line", "setting": "[2]", "result": 3, "unit": "fold"}, {"measurement": "IC50", "setting": "[2]; melphalan-resistant L1210", "result": 0.46, "unit": "ng/mL"}]}
{"smiles": "CN1CCN(c2ccc3nc(-c4c(N)c5c(F)cccc5[nH]c4=O)[nH]c3c2)CC1", "note": "[Compound 1, 4-amino-5-fluoro-3-[6-(4-methyl-piperazin-1-yl)-1H-benzimidazol-2-yl]-1H-quinolin-2-one]", "values": [{"measurement": "plasma exposure (Cmax, AUC) versus dose", "setting": "[3]", "result": "increases proportionally with dose"}, {"measurement": "tumor growth inhibition (TGI)", "setting": "MV4;11 tumors; MV4;11, 1 mg/kg/d oral, after 2 weeks of dosing", "result": 23, "unit": "%"}, {"measurement": "number of CR", "setting": "MV4;11 tumors; MV4;11, 30 mg/kg daily, schedule study", "result": 1}, {"measurement": "TGI", "setting": "MV4;11 tumors; MV4;11, 30 mg/kg, intermittent dosage regimens", "result": "> 94", "unit": "%"}, {"measurement": "complete responders (CR)", "setting": "MV4;11 tumors; [7]", "result": 1}, {"measurement": "tumor responses (regression)", "setting": "MV4;11 tumors; [7]", "result": 9110}, {"measurement": "PRs durable for 40 days after cessation of dosing", "setting": "MV4;11 tumors; MV4;11, after 50 days of 30 mg/kg/d", "result": "approximately 50%"}, {"measurement": "doses giving significant tumor growth inhibition", "setting": "MV4;11 tumors; MV4;11 tumors", "result": "> 5", "unit": "mg/kg/day"}, {"measurement": "minimum statistically effective dose", "setting": "MV4;11 tumors; MV4;11 tumors, p<0.01 vs. Vehicle", "result": 1, "unit": "mg/kg/day"}, {"measurement": "complete responses", "setting": "MV4;11 tumors; [8]", "result": 15, "unit": "%"}, {"measurement": "minor responses or remained stable", "setting": "MV4;11 tumors; [8]", "result": 15, "unit": "%"}, {"measurement": "partial responses", "setting": "MV4;11 tumors; [8]", "result": 70, "unit": "%"}, {"measurement": "time until tumor regressions were evident", "setting": "MV4;11 tumors; large MV4;11 tumors, 30 mg/kg/d", "result": "3 to 5", "unit": "days"}, {"measurement": "number of CR, second cycle", "setting": "MV4;11 tumors; ten re-grown MV4;11 tumors re-treated with 30 mg/kg/d for 60 days", "result": 2}, {"measurement": "TGI", "setting": "RS4;11 tumors; 100 mg/kg/d, day 8", "result": 48, "unit": "%"}, {"measurement": "minimum effective dose", "setting": "RS4;11 tumors; day 8, p<0.01", "result": 100, "unit": "mg/kg/day"}, {"measurement": "MST", "setting": "MV4;11 cells; 20 mg/kg cyclic, 7 days on/7 days off, 5 cycles", "result": 118, "unit": "days"}, {"measurement": "MV4;11 cells in BM (leukemic burden)", "setting": "MV4;11 cells; 20 mg/kg daily over 25 days, flow cytometry", "result": "< 1", "unit": "%"}, {"measurement": "increased life span (ILS)", "setting": "MV4;11 cells; 20 mg/kg daily, vs vehicle", "result": 163, "unit": "%"}, {"measurement": "Anorexia, drug-related clinical adverse events ≥G2", "setting": "[4]", "result": 2}, {"measurement": "Hypertension (DLT), drug-related clinical adverse events ≥G2", "setting": "[4]", "result": "2 (1 G3)"}, {"measurement": "patients with stable disease (SD) at their first evaluation", "setting": "[5]; 7/22 patients", "result": 32, "unit": "%"}, {"measurement": "patients with SD for greater than 4 months", "setting": "[5]; in vivo", "result": 4, "unit": "patients"}, {"measurement": "inhibition at 10 mg/kg", "setting": "pSTAT5 in MV4;11 tumors; MV4-11, read-out: inhibition of STAT5 phosphorylation in tumors, 10 mg/kg/d x 5 days, 8 hour post dose (maximum)", "result": 90, "unit": "%"}, {"measurement": "inhibition at 10 mg/kg", "setting": "pSTAT5 in MV4;11 tumors; MV4-11, read-out: inhibition of STAT5 phosphorylation in tumors, 10 mg/kg/d x 5 days, 24 hours", "result": 85, "unit": "%"}, {"measurement": "inhibition at 10 mg/kg", "setting": "pSTAT5 in MV4;11 tumors; MV4-11, read-out: inhibition of p-STAT5 in tumors, 10 mg/kg/d x 5 days, 48 hours post dose", "result": 60, "unit": "%"}, {"measurement": "treated animals with regression and/or disease stabilization", "setting": "[6]", "result": "90-100%"}, {"measurement": "P-GP substrate", "setting": "P-glycoprotein", "result": "not a P-GP substrate"}]}
